Results reported in paper PMC8155022 (Scientific Reports, 2021).
Read-outs that look alike come from different tables or passages of the source.

Columns and labels:
MAPK1(h) = molecular target: T1, MAPK1(h) (Homo sapiens, UniProt P27361); assay: Kinase panel; format: biochemical
T1 construct: purchased Cerep (receptors, ion channels, transporters); Eurofins Panlabs (kinases)
Method: (§1) Kinase selectivity was conducted by Eurofins Panlabs Inc (St Charles, MO).

AT1 = AT1 (Homo sapiens, UniProt P30556); assay: GPCR panel, cAMP or calcium FLIPR assays; format: cell-based
Method: (§2) 28 GPCRs were evaluated through cAMP or calcium FLIPR assays[67].

GR = molecular target: T2, GR (Homo sapiens, UniProt P04150); assay: nuclear receptor cellular GAL4 reporter assay; format: cell-based; details: agonist and antagonist mode; read-out: potency in agonist and antagonist mode
T2 construct: expressed in transfected cells

CK2(h) = molecular target: T3, CK2(h) (Homo sapiens, UniProt P68400); assay: Kinase panel; format: biochemical
T3 construct: purchased Cerep (receptors, ion channels, transporters); Eurofins Panlabs (kinases)
T3 sequence (P68400 whole entry): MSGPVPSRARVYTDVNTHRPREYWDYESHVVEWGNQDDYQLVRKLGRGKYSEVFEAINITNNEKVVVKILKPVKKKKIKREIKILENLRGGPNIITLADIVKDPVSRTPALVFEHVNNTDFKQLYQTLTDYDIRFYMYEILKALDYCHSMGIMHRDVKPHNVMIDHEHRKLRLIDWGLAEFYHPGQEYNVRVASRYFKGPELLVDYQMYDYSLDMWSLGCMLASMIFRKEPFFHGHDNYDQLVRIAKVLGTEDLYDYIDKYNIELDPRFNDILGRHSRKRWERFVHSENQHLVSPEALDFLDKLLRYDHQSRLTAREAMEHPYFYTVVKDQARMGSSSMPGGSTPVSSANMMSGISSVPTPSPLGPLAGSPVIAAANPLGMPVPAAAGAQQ
T3 sequence (P67870 whole entry partner): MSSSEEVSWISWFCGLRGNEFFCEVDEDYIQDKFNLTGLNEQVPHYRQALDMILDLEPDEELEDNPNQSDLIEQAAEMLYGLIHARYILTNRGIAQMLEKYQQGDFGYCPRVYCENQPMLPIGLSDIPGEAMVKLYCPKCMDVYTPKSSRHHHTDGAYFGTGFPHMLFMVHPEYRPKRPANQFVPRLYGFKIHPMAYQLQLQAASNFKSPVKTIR
Method: as §1

[1] = phase 1 single ascending dose study, pharmacokinetics; format: in vivo, human; details: for Tmax: median (range)
Method: Based on mean values, dose normalized overall exposure (AUC216h, AUC∞) also appeared to increase proportionally with dose.
Informed consent was obtained from all participants. No formal sample size and power calculations were performed.
Plasma samples with K2EDTA anticoagulant were treated with acetonitrile for protein extraction then processed with liquid chromatography coupled to tandem mass spectrometry. Reversed-phase HPLC separation was used and tandem MS/MS detection was set in TIS positive mode. […] All the data reported in sample analysis and validation met the predefined acceptance criteria and fulfilled the requirements and recommendations in the current FDA guidance for bioanalytical method validations and analysis.

NK2 (h) = molecular target: T4, NK2 (h) (Homo sapiens, UniProt P21452); assay: Cerep panel; format: binding
T4 construct: purchased Cerep (receptors, ion channels, transporters); Eurofins Panlabs (kinases)
T4 sequence (P21452 1-398): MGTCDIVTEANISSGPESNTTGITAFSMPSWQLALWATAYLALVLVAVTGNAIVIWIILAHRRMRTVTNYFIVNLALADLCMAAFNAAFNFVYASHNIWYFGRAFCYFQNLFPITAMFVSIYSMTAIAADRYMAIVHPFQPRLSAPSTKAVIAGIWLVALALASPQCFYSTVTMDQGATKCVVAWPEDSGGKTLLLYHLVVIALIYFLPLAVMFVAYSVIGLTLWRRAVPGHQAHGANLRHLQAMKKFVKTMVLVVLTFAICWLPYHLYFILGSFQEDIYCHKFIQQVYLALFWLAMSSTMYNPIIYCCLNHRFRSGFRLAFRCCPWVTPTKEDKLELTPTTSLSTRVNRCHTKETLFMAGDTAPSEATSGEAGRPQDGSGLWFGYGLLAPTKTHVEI
Method: 28 GPCRs were evaluated through cAMP or calcium FLIPR assays[67]. A panel of 52 different receptors, ion channels and transporters was tested by Cerep, Inc. (Redmond, WA). Kinase selectivity was conducted by Eurofins Panlabs Inc (St Charles, MO).

[2] = molecular target: hGABAAα1β2γ2-gated Cl− channel (Homo sapiens, UniProt P14867+P18507+P47870); assay: follow-up functional study; format: cell-based; details: read-out: IC50 in follow-up functional studies
CK2α2(h) = molecular target: T5, CK2α2(h) (Homo sapiens, UniProt P19784); assay: Kinase panel; format: biochemical
T5 construct: purchased Cerep (receptors, ion channels, transporters); Eurofins Panlabs (kinases)
T5 sequence (P19784 whole entry): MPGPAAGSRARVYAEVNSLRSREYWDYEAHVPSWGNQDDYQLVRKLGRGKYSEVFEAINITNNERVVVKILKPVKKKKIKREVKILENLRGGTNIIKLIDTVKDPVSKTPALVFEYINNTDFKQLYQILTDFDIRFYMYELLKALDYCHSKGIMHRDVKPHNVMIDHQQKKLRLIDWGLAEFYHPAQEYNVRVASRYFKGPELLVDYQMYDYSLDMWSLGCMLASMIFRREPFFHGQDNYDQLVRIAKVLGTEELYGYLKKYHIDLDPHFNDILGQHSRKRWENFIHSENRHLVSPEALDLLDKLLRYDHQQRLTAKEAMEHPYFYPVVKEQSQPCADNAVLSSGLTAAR
Method: as §1

mouse whole blood = assay: in vitro whole blood assay, IL-17A production; format: cell-based; details: mouse whole blood diluted 1:4; read-out: IC50, inhibition of IL-17A production
5-HT7 (h) = molecular target: T6, 5-HT7 (h) (Homo sapiens, UniProt P34969); assay: Cerep panel; format: binding
T6 construct: purchased Cerep (receptors, ion channels, transporters); Eurofins Panlabs (kinases)
Method: (§3) A panel of 52 different receptors, ion channels and transporters was tested by Cerep, Inc. (Redmond, WA).

AT1 (h) = molecular target: T7, AT1 (h) (Homo sapiens, UniProt P30556); assay: Cerep panel; format: binding
T7 construct: purchased Cerep (receptors, ion channels, transporters); Eurofins Panlabs (kinases)
Method: as §3

GSK3β(h) = molecular target: T8, GSK3β(h) (Homo sapiens, UniProt P49841); assay: Kinase panel; format: biochemical
T8 construct: purchased Cerep (receptors, ion channels, transporters); Eurofins Panlabs (kinases)
T8 sequence (P49841 whole entry): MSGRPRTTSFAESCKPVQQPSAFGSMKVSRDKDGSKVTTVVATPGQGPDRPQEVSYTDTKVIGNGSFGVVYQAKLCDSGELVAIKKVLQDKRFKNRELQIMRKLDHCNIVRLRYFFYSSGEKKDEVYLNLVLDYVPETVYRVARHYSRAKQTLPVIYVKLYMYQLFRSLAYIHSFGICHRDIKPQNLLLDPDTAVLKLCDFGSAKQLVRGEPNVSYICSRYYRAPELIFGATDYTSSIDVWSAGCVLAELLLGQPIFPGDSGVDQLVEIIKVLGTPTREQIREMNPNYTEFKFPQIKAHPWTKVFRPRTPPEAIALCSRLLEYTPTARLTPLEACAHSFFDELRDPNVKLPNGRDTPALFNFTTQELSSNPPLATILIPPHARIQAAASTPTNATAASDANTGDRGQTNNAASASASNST
Method: as §1

GAL2 (h) = molecular target: T9, GAL2 (h) (Homo sapiens, UniProt O43603); assay: Cerep panel; format: binding
T9 construct: purchased Cerep (receptors, ion channels, transporters); Eurofins Panlabs (kinases)
Method: as §3

JAK3(h) = molecular target: T10, JAK3(h) (Homo sapiens, UniProt P52333); assay: Kinase panel; format: biochemical
T10 construct: purchased Cerep (receptors, ion channels, transporters); Eurofins Panlabs (kinases)
Method: as §1

AR = molecular target: T11, AR (Homo sapiens, UniProt P10275); assay: nuclear receptor cellular GAL4 reporter assay; format: cell-based; details: agonist and antagonist mode; read-out: potency in agonist and antagonist mode
T11 construct: expressed in transfected cells

CaMKIIβ(h) = molecular target: T12, CaMKIIβ(h) (Homo sapiens, UniProt Q13554); assay: Kinase panel; format: biochemical
T12 construct: purchased Cerep (receptors, ion channels, transporters); Eurofins Panlabs (kinases)
Method: as §1

5-HT5A (h) = molecular target: T13, 5-HT5A (h) (Homo sapiens, UniProt P47898); assay: Cerep panel; format: binding
T13 construct: purchased Cerep (receptors, ion channels, transporters); Eurofins Panlabs (kinases)
Method: as §3

Plk3(h) = molecular target: T14, Plk3(h) (Homo sapiens, UniProt Q9H4B4); assay: Kinase panel; format: biochemical
T14 construct: purchased Cerep (receptors, ion channels, transporters); Eurofins Panlabs (kinases)
Method: as §1

CaMKIδ(h) = molecular target: T15, CaMKIδ(h) (Homo sapiens, UniProt Q8IU85); assay: Kinase panel; format: biochemical
T15 construct: purchased Cerep (receptors, ion channels, transporters); Eurofins Panlabs (kinases)
T15 sequence (Q8IU85 whole entry): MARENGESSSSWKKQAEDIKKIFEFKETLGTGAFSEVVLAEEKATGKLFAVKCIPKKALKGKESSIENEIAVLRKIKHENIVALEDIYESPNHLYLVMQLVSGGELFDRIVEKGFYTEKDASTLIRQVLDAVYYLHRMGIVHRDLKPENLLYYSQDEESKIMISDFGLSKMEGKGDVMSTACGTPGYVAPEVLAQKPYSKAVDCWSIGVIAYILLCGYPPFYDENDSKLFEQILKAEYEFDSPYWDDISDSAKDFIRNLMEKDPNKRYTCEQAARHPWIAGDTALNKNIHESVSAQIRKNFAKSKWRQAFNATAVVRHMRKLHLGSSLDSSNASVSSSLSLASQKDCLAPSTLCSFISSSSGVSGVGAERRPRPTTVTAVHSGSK
Method: as §1

TrkC(h) = molecular target: T16, TrkC(h) (Homo sapiens, UniProt Q16288); assay: Kinase panel; format: biochemical
T16 construct: purchased Cerep (receptors, ion channels, transporters); Eurofins Panlabs (kinases)
T16 sequence (Q16288 32-839): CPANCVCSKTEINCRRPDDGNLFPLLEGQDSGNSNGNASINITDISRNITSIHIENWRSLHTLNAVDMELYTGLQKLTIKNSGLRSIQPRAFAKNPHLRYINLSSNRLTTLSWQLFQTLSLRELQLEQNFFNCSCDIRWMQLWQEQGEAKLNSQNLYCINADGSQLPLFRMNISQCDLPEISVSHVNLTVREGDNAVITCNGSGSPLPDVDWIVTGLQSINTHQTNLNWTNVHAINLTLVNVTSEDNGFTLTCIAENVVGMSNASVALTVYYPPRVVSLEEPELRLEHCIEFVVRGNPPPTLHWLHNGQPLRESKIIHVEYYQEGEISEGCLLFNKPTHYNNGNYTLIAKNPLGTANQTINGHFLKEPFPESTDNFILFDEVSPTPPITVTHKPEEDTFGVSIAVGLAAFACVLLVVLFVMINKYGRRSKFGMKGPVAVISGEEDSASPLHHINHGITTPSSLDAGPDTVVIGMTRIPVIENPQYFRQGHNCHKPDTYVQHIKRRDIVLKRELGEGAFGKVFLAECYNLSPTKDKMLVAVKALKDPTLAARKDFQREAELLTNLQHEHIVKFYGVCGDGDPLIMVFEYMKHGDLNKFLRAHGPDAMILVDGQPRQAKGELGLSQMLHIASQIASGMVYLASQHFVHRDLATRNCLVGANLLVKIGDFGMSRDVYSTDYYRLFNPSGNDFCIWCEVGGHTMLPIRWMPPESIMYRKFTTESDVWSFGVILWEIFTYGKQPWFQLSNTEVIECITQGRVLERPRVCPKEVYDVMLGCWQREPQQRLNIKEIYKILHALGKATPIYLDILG
Method: as §1

5HT2B = 5HT2B (Homo sapiens, UniProt P41595); assay: GPCR panel, cAMP or calcium FLIPR assays; format: cell-based
Method: as §2

IRAK4(h) = molecular target: T17, IRAK4(h) (Homo sapiens, UniProt Q9NWZ3); assay: Kinase panel; format: biochemical
T17 construct: purchased Cerep (receptors, ion channels, transporters); Eurofins Panlabs (kinases)
T17 sequence (Q9NWZ3 whole entry): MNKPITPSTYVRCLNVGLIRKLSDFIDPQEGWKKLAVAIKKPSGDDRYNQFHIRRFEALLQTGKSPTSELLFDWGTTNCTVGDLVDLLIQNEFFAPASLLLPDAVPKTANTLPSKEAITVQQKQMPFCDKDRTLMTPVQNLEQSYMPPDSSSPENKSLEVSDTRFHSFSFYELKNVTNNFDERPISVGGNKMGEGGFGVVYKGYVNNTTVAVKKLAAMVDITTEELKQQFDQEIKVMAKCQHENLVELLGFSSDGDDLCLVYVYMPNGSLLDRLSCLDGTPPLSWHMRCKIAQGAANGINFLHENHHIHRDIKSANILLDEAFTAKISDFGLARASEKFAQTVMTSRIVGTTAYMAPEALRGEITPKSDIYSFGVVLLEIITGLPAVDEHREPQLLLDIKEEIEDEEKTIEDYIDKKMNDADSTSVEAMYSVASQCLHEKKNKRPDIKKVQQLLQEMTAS
Method: as §1

IR(h) = molecular target: T18, IR(h) (Homo sapiens, UniProt P06213); assay: Kinase panel; format: biochemical
T18 construct: purchased Cerep (receptors, ion channels, transporters); Eurofins Panlabs (kinases)
T18 sequence (P06213 28-1382): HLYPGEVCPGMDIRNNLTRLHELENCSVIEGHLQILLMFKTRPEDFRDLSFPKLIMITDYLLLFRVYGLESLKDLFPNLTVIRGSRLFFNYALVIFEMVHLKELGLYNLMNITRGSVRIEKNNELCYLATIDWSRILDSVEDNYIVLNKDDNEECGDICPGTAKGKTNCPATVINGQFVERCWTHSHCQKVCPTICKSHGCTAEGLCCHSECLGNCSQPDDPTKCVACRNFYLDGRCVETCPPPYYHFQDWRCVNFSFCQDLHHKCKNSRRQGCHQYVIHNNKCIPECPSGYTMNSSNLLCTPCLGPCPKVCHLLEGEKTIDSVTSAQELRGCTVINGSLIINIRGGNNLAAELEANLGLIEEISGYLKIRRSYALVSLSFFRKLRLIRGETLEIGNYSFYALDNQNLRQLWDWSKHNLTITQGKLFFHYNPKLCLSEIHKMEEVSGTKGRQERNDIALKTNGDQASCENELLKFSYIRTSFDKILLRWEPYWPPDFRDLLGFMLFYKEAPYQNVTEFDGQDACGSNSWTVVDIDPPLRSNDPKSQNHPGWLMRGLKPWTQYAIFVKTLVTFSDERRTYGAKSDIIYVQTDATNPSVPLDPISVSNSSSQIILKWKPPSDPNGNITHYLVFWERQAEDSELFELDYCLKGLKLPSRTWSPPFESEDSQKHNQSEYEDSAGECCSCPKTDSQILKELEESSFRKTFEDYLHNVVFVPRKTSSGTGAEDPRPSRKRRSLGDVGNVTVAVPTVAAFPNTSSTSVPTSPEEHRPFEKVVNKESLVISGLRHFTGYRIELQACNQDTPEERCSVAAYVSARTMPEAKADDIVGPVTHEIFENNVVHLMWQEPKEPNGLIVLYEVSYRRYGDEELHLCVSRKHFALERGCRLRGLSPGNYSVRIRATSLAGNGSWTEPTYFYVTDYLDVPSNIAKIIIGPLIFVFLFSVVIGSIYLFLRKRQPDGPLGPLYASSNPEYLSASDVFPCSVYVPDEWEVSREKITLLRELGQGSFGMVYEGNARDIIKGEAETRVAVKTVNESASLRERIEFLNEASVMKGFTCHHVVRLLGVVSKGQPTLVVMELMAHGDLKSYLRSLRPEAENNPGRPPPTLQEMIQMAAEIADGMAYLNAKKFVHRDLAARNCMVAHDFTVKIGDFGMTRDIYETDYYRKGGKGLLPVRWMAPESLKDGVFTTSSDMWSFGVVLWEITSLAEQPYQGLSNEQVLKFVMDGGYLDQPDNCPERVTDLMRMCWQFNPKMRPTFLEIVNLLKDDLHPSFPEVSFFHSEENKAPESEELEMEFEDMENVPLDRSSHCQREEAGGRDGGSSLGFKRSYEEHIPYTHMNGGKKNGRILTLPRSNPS
Method: as §1

[3] = both sexes, human, plasma, po, 10 mg, 10 mg single oral dose, fasted, n=6, mean (SD)
[4] = both sexes, human, plasma, po, 30 mg, 30 mg single oral dose, fasted, n=6, mean (SD)
[5] = both sexes, human, plasma, po, 100 mg, 100 mg single oral dose, fasted, n=9, mean (SD)
[6] = both sexes, human, plasma, po, 100 mg, 100 mg single oral dose, fed, n=9, mean (SD)
[7] = both sexes, human, plasma, po, 200 mg, 200 mg single oral dose, fasted, n=6, mean (SD)

T1 sequence (P27361 whole entry): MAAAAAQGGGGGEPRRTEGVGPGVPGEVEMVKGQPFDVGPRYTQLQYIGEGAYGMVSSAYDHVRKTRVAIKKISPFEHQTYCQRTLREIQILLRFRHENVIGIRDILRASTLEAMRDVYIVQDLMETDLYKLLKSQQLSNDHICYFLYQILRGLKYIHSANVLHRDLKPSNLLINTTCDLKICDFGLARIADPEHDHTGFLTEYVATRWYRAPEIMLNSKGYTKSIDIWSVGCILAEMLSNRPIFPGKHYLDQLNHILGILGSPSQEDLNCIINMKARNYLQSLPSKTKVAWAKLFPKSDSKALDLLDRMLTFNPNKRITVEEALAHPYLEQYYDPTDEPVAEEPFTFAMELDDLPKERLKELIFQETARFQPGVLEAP

CC1CCCN1C(=O)c1nc(C(=O)NCC(C)(C)O)sc1-c1ccc(C(O)(C(F)(F)F)C(F)(F)F)c(Cl)c1Cl (centres unmarked) [JNJ-61803534]
activity at 1 µM (MAPK1(h)): 91% | activity at 10 µM (MAPK1(h)): 112% | EC50 (AT1; agonist): > 5 µM | IC50 (AT1; antagonist): > 5 µM | IC50 (GR): > 1.5 µM | activity at 1 µM (CK2(h)): 109% | activity at 10 µM (CK2(h)): 102% | Tmax ([1]; 100 mg single oral dose, fed, n=9): 12 h | AUC(0-inf) [1, 3]: 8480 ng·h/mL | Cmax [1, 3]: 35.9 ng/mL | AUC(0-t) ([1]; both sexes, human, plasma, po, 10 mg, 10 mg single oral dose, fasted, n=6, mean (SD), read-out: AUC216h): 5180 ng·h/mL | half-life ([1]; both sexes, human, plasma, po, 10 mg, 10 mg single oral dose, fasted, n=6, mean (SD), read-out: t1/2 (converted)): 168 h | Tmax ([1]; both sexes, human, plasma, po, 10 mg, 10 mg single oral dose, fasted, n=6, read-out: tmax): 10 h | AUC(0-inf) [1, 4]: 28700 ng·h/mL | Cmax [1, 4]: 146 ng/mL | AUC(0-t) ([1]; both sexes, human, plasma, po, 30 mg, 30 mg single oral dose, fasted, n=6, mean (SD), read-out: AUC216h): 17400 ng·h/mL | half-life ([1]; both sexes, human, plasma, po, 30 mg, 30 mg single oral dose, fasted, n=6, mean (SD), read-out: t1/2 (converted)): 170 h | Tmax ([1]; both sexes, human, plasma, po, 30 mg, 30 mg single oral dose, fasted, n=6, read-out: tmax): 6.02 h | AUC(0-inf) [1, 5]: 100000 ng·h/mL | Cmax [1, 5]: 700 ng/mL | AUC(0-t) ([1]; both sexes, human, plasma, po, 100 mg, 100 mg single oral dose, fasted, n=9, mean (SD), read-out: AUC216h): 68400 ng·h/mL | AUC(0-t) ([1]; both sexes, human, plasma, po, 100 mg, 100 mg single oral dose, fasted, n=9, mean (SD), read-out: AUClast): 99100 ng·h/mL | half-life ([1]; both sexes, human, plasma, po, 100 mg, 100 mg single oral dose, fasted, n=9, mean (SD), read-out: t1/2 (converted)): 170 h | Tmax ([1]; both sexes, human, plasma, po, 100 mg, 100 mg single oral dose, fasted, n=9, read-out: tmax): 6 h | AUC(0-inf) [1, 6]: 90400 ng·h/mL | Cmax [1, 6]: 602 ng/mL | AUC(0-t) ([1]; both sexes, human, plasma, po, 100 mg, 100 mg single oral dose, fed, n=9, mean (SD), read-out: AUC216h): 61700 ng·h/mL | AUC(0-t) ([1]; both sexes, human, plasma, po, 100 mg, 100 mg single oral dose, fed, n=9, mean (SD), read-out: AUClast): 89700 ng·h/mL | half-life ([1]; both sexes, human, plasma, po, 100 mg, 100 mg single oral dose, fed, n=9, mean (SD), read-out: t1/2 (converted)): 168 h | Tmax ([1]; both sexes, human, plasma, po, 100 mg, 100 mg single oral dose, fed, n=9, read-out: tmax): 12 h | AUC(0-inf) [1, 7]: 201000 ng·h/mL | Cmax [1, 7]: 1810 ng/mL | AUC(0-t) ([1]; both sexes, human, plasma, po, 200 mg, 200 mg single oral dose, fasted, n=6, mean (SD), read-out: AUC216h): 154000 ng·h/mL | AUC(0-t) ([1]; both sexes, human, plasma, po, 200 mg, 200 mg single oral dose, fasted, n=6, mean (SD), read-out: AUClast): 200000 ng·h/mL | half-life ([1]; both sexes, human, plasma, po, 200 mg, 200 mg single oral dose, fasted, n=6, mean (SD), read-out: t1/2 (converted)): 164 h | Tmax ([1]; both sexes, human, plasma, po, 200 mg, 200 mg single oral dose, fasted, n=6, read-out: tmax): 6 h | half-life ([1]; both sexes, human, plasma, po, single oral doses 10 to 200 mg, read-out: plasma half-life, mean T1/2 values across the dose groups): 164 to 170 h | inhibition at 1 µM (NK2 (h); 1 µM): < 10% | % Inhibition at 10 µM (NK2 (h); 10 µM): 54.8% | inhibition at 10 µM (NK2 (h); 10 µM): > 50% | IC50 [2]: > 30 µM | activity at 1 µM (CK2α2(h)): 92% | activity at 10 µM (CK2α2(h)): 100% | IC50 (mouse whole blood): 0.172 ± 0.05 µM | inhibition at 1 µM (5-HT7 (h)): < 10% | inhibition at 10 µM (5-HT7 (h)): < 10% | inhibition at 1 µM (AT1 (h)): < 10% | inhibition at 10 µM (AT1 (h)): < 10% | activity at 1 µM (GSK3β(h)): 111% | activity at 10 µM (GSK3β(h)): 105% | inhibition at 1 µM (GAL2 (h)): < 10% | inhibition at 10 µM (GAL2 (h)): < 10% | activity at 1 µM (JAK3(h)): 109% | activity at 10 µM (JAK3(h)): 114% | IC50 (AR): > 1.5 µM | activity at 1 µM (CaMKIIβ(h)): 89% | activity at 10 µM (CaMKIIβ(h)): 92% | inhibition at 1 µM (5-HT5A (h)): < 10% | inhibition at 10 µM (5-HT5A (h)): < 10% | activity at 1 µM (Plk3(h)): 120% | activity at 10 µM (Plk3(h)): 114% | activity at 1 µM (CaMKIδ(h)): 81% | activity at 10 µM (CaMKIδ(h)): 100% | activity at 1 µM (TrkC(h)): 92% | activity at 10 µM (TrkC(h)): 88% | EC50 (5HT2B; agonist): > 10 µM | IC50 (5HT2B; antagonist): > 10 µM | activity at 1 µM (IRAK4(h)): 113% | activity at 10 µM (IRAK4(h)): 112% | activity at 1 µM (IR(h)): 92% | activity at 10 µM (IR(h)): 89%
